ChEMBL document CHEMBL1201862, “PubChem BioAssay data set” (2004)
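Exposure lasted 48 hours, with cells grown in 96-well plates and compounds tested at five concentrations. GI50: concentration for 50% inhibition of growth.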 Calls of active or inactive are those of the source. Cut-off read from the data, not from the text of the source: active = GI50 up to about 1.1 µM and inactive = higher.

Key:
Assay in all cases: DTP human tumour cell line panel, 48 h
[1] = system: 786-0
[2] = system: BT-549
[3] = system: DU-145
[4] = system: HCC 2998
[5] = system: HOP-62
[6] = system: Hs-578T
[7] = system: K562
[8] = system: MOLT-4
[9] = system: NCI-H23
[10] = system: OVCAR-4
[11] = system: OVCAR-5
[12] = system: RXF 393
[13] = system: SF-268
[14] = system: SF-539
[15] = system: SK-MEL-28
[16] = system: SK-MEL-2
[17] = system: SK-MEL-5
[18] = system: T47D
[19] = system: HCT-15

| SMILES | GI50 [1] | GI50 [2] | GI50 [3] | GI50 [4] | GI50 [5] | GI50 [6] | GI50 [7] | GI50 [8] | GI50 [9] | GI50 [10] | GI50 [11] | GI50 [12] | GI50 [13] | GI50 [14] | GI50 [15] | GI50 [16] | GI50 [17] | GI50 [18] | GI50 [19] [µM] |
| --- | --- | --- | --- | --- | --- | --- | --- | --- | --- | --- | --- | --- | --- | --- | --- | --- | --- | --- | --- |
| O=C(Nc1cc2cc([N+](=O)[O-])ccc2oc1=O)c1cccs1 | 89.5 µM (inactive) | 69.2 µM (inactive) | > 100 µM (inactive) | 48.3 µM (inactive) | 28.8 µM (inactive) | 30.8 µM (inactive) | 25.9 µM (inactive) | 25.3 µM (inactive) | > 10 µM (inactive) | 43.6 µM (inactive) | > 100 µM (inactive) | 4.86 µM (inactive) | 33.2 µM (inactive) | 25.6 µM (inactive) | 58.9 µM (inactive) | 72.9 µM (inactive) | 16 µM (inactive) | 38.5 µM (inactive) | – |
| NC(=O)N/N=C/c1ccccc1O | > 100 µM (inactive) | > 100 µM (inactive) | > 100 µM (inactive) | > 100 µM (inactive) | > 100 µM (inactive) | 53.6 µM (inactive) | > 100 µM (inactive) | > 100 µM (inactive) | > 100 µM (inactive) | > 100 µM (inactive) | – | > 100 µM (inactive) | > 100 µM (inactive) | > 100 µM (inactive) | > 100 µM (inactive) | > 100 µM (inactive) | > 100 µM (inactive) | > 100 µM (inactive) | > 100 |
| Cn1nnc2c3c(N(CCO)CCO)ccnc3ccc21 | > 100 µM (inactive) | > 100 µM (inactive) | > 100 µM (inactive) | 29.7 µM (inactive) | 47.2 µM (inactive) | > 100 µM (inactive) | > 100 µM (inactive) | 47.4 µM (inactive) | 97.9 µM (inactive) | > 100 µM (inactive) | > 100 µM (inactive) | > 100 µM (inactive) | 87.5 µM (inactive) | 99.5 µM (inactive) | – | > 100 µM (inactive) | > 100 µM (inactive) | 59.3 µM (inactive) | > 100 |
| CC(=O)Oc1ccc2c(c1)c1c(OC(C)=O)c3ccccc3c(OC(C)=O)c1n2Cc1cccc(C)c1 | 36.2 µM (inactive) | 35.1 µM (inactive) | > 100 µM (inactive) | 22.8 µM (inactive) | 25.3 µM (inactive) | 24.9 µM (inactive) | 32.1 µM (inactive) | 34.6 µM (inactive) | 38.7 µM (inactive) | 33.3 µM (inactive) | 34.4 µM (inactive) | 38.9 µM (inactive) | 29.8 µM (inactive) | 25.1 µM (inactive) | > 100 µM (inactive) | 20 µM (inactive) | – | 21.8 µM (inactive) | 53.7 |
| COC(=O)c1c(O)ccc2c1c1cc3ccccc3c(O)c1n2Cc1ccccc1Cl | 22.3 µM (inactive) | 32.8 µM (inactive) | 31.3 µM (inactive) | 20 µM (inactive) | 26.1 µM (inactive) | 27.1 µM (inactive) | 31.5 µM (inactive) | 16.6 µM (inactive) | 18.4 µM (inactive) | 11.6 µM (inactive) | 34.9 µM (inactive) | 23 µM (inactive) | 19.3 µM (inactive) | 17.3 µM (inactive) | 14.5 µM (inactive) | 17.7 µM (inactive) | 19.1 µM (inactive) | 12.2 µM (inactive) | 19.2 |
| O=C(c1ccccc1)C1C(c2ccccc2[N+](=O)[O-])N1C1CCCCC1 (configuration not stated) | 1.99 µM (inactive) | 11.6 µM (inactive) | 10.1 µM (inactive) | 6.79 µM (inactive) | 15.1 µM (inactive) | 10.3 µM (inactive) | 2.79 µM (inactive) | 2.43 µM (inactive) | 16.4 µM (inactive) | 9.33 µM (inactive) | 17 µM (inactive) | 4.27 µM (inactive) | 9.2 µM (inactive) | 2.1 µM (inactive) | > 42.3 µM (inactive) | 5.21 µM (inactive) | 11 µM (inactive) | 2.51 µM (inactive) | 3.52 |
| CC(=O)OC1=CC2=CC[C@H]3[C@@H]4CCC(=O)[C@@]4(C)CC(=O)[C@]3(S)[C@@]2(C)CC1 | 27.8 µM (inactive) | 35 µM (inactive) | 62.5 µM (inactive) | 31.6 µM (inactive) | 38.9 µM (inactive) | 25.1 µM (inactive) | 25.1 µM (inactive) | 17.4 µM (inactive) | 36.6 µM (inactive) | 57.8 µM (inactive) | > 100 µM (inactive) | 18.7 µM (inactive) | 26.7 µM (inactive) | 20 µM (inactive) | 55 µM (inactive) | 47.1 µM (inactive) | 31.6 µM (inactive) | 34.8 µM (inactive) | 34.2 |
| C/C(=C/C(=O)Nn1c(Cc2ccccc2)n[nH]c1=O)C(=O)O | > 100 µM (inactive) | > 100 µM (inactive) | > 100 µM (inactive) | > 100 µM (inactive) | > 100 µM (inactive) | > 100 µM (inactive) | > 100 µM (inactive) | > 100 µM (inactive) | > 100 µM (inactive) | > 100 µM (inactive) | > 100 µM (inactive) | > 100 µM (inactive) | > 100 µM (inactive) | > 100 µM (inactive) | > 100 µM (inactive) | > 100 µM (inactive) | > 100 µM (inactive) | > 100 µM (inactive) | > 100 |
| COc1cc(C2c3cc4c(cc3OC3(OC)COC(=O)C23)OCO4)cc(OC)c1OC (configuration not stated) | 0.353 µM (active) | 1.7 µM (inactive) | 0.395 µM (active) | 0.325 µM (active) | 0.48 µM (active) | 0.355 µM (active) | 0.23 µM (active) | 0.456 µM (active) | 0.389 µM (active) | 4.85 µM (inactive) | 3.66 µM (inactive) | 0.142 µM (active) | 0.514 µM (active) | 0.197 µM (active) | 0.4 µM (active) | 0.771 µM (active) | 0.292 µM (active) | > 100 µM (inactive) | 0.286 |
| CC1(C)C(=O)N(O)C(C)(C)N1O | > 10 µM (inactive) | > 10 µM (inactive) | > 10 µM (inactive) | > 10 µM (inactive) | > 10 µM (inactive) | > 10 µM (inactive) | > 10 µM (inactive) | > 10 µM (inactive) | > 10 µM (inactive) | > 10 µM (inactive) | > 10 µM (inactive) | > 10 µM (inactive) | > 10 µM (inactive) | > 10 µM (inactive) | > 10 µM (inactive) | > 10 µM (inactive) | > 10 µM (inactive) | > 10 µM (inactive) | > 10 |
| CNC(=O)Nc1cc2c3c(c1)CCCN3CCC2 | > 10 µM (inactive) | > 10 µM (inactive) | > 10 µM (inactive) | > 10 µM (inactive) | > 10 µM (inactive) | > 10 µM (inactive) | > 10 µM (inactive) | – | > 10 µM (inactive) | > 10 µM (inactive) | > 10 µM (inactive) | > 10 µM (inactive) | > 10 µM (inactive) | > 10 µM (inactive) | > 10 µM (inactive) | > 10 µM (inactive) | > 10 µM (inactive) | > 10 µM (inactive) | > 10 |
| Cc1nc(O)nc2nc3ccc(Cl)cc3c(N(CCO)CCO)c12 | > 100 µM (inactive) | > 100 µM (inactive) | > 100 µM (inactive) | > 100 µM (inactive) | > 100 µM (inactive) | 10.7 µM (inactive) | 85.7 µM (inactive) | > 100 µM (inactive) | > 100 µM (inactive) | 18.4 µM (inactive) | > 100 µM (inactive) | 73.6 µM (inactive) | > 100 µM (inactive) | > 100 µM (inactive) | > 100 µM (inactive) | > 100 µM (inactive) | > 100 µM (inactive) | > 100 µM (inactive) | 94.4 |
| CN(C)c1cc2ccccc2oc1=O | > 100 µM (inactive) | > 100 µM (inactive) | > 100 µM (inactive) | > 100 µM (inactive) | > 100 µM (inactive) | > 100 µM (inactive) | > 100 µM (inactive) | > 100 µM (inactive) | > 100 µM (inactive) | > 100 µM (inactive) | > 100 µM (inactive) | 20.6 µM (inactive) | > 100 µM (inactive) | > 100 µM (inactive) | > 100 µM (inactive) | > 100 µM (inactive) | > 100 µM (inactive) | > 100 µM (inactive) | > 100 |
| Clc1cccc2[nH]ncc12 | > 100 µM (inactive) | 36.1 µM (inactive) | > 100 µM (inactive) | > 100 µM (inactive) | > 100 µM (inactive) | 76 µM (inactive) | > 100 µM (inactive) | > 100 µM (inactive) | – | > 100 µM (inactive) | > 100 µM (inactive) | 51.8 µM (inactive) | – | > 100 µM (inactive) | > 100 µM (inactive) | > 100 µM (inactive) | > 100 µM (inactive) | 16.6 µM (inactive) | > 100 |
| COc1cc2c(c(OC)c1OC)-c1ccc(SC)c(=O)cc1[C@@H](OC(C)=O)CC2 | < 0.01 µM (active) | < 0.01 µM (active) | < 0.01 µM (active) | < 0.01 µM (active) | < 0.01 µM (active) | < 0.01 µM (active) | < 0.01 µM (active) | < 0.01 µM (active) | < 0.01 µM (active) | > 100 µM (inactive) | – | 0.885 µM (active) | < 0.01 µM (active) | < 0.01 µM (active) | < 0.01 µM (active) | < 0.01 µM (active) | < 0.01 µM (active) | > 100 µM (inactive) | < 0.01 |
